In test [1] the target is T1, PPM1D (Homo sapiens, UniProt O15297).
T1 sequence (O15297 1-420): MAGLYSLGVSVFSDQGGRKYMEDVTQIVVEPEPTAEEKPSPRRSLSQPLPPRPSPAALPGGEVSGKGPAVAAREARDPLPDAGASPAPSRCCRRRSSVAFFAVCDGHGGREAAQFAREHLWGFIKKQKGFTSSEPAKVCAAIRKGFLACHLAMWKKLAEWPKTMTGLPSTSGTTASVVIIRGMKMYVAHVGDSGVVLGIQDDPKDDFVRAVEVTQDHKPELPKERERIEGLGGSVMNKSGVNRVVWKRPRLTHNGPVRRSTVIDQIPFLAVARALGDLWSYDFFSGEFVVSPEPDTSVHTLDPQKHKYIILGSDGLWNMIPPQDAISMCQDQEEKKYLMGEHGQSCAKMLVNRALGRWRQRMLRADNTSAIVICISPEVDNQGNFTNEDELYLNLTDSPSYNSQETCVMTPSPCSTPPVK
In words: SPR. It is filed as binding.

Test [2] has as its system MOLM13 TP53 WT (MOLM13-tPPM1D). Nature of the test: cells. The conditions noted are these: Homo sapiens, MOLM-13, read-out: 461 / 5.3 / 107.
The target of test [3] is T1, PPM1D. Nature of the test: biochemical.
The test system of test [4] is PPM1D in MOLM13-tPPM1D cells. Nature of the test: cells. The conditions noted are these: read-out: 461 / 5.3 / 107.
The test system of test [5] is K562 p21-ffLuc reporter (wildtype TP53). In words: cells. The conditions noted are these: Homo sapiens, K562, read-out: 461 / 5.3 / 107.

Molecules are shown by their SMILES.

For the compound `Cc1ncc(Cl)cc1NCc1ccc(C(=O)N[C@@H](CC2CCCC2)C(=O)NC2CC2)s1` [GSK2830371], the dissociation constant Kd (as a rule, the concentration at which binding is half-saturated) on PPM1D [1] worked out at 8 nM. Further, the IC50 in test [2] was 394 nM; against PPM1D [3], 20 nM. Further, the EC50 in test [4] was 383 nM; in test [5] it was 221 nM.
